# From patent publication US20210290676A1, “IMPROVING THE EFFICACY AND SAFETY OF ADOPTIVE CELLULAR THERAPIES” (University of Southern California, priority 2018, published 2021)
# Legend:
# Type in all cases: cell-based, human
# [1] = tested on: CD8+CD45RA+CCR7+CD62L+ T cells; experiment: Flow cytometry for CD8, CD45RA, CCR7 and CD62L on inhibitor-treated T cells; settings: for % of CD62L+CCR7+ double positive cells out of CD45RA+ cells in CD8+ T cell population: 13 days of treatment; for GATE P4 CD8(PerCP)+, CD45RA(FITC)+, CCR7 (PE)+, CD62L(APC): cells cultured for 14 days
# Description: (§1) DAY 0: Blood was obtained from unidentified donor. After RBC lysis, PBMC were collected using Ficoll-Hypaque separation. […] T cells were cultured in three different conditions: • 1. XVIVO 15 medium (Lonza) with IL2 50 IU/ml, CD3 antibody (30 ng/ml) and CD28 antibody (30 ng/ml). • 2. XVIVO 15 medium (Lonza) with CD3 antibody (30 ng/ml) and CD28 antibody (30 ng/ml). • 3. XVIVO 15 medium (Lonza) with IL2 50 IU/ml DAY 1: Cells were plated in a 6-well plate at a density of 1 million cells in 2 ml/of media (as described above) and treated with different inhibitors
# (§2) A second aliquot of the cells cultured for 13 days with all the treatments listed above (1-21) was washed with PBS+1% FBS, stained with CD8-PerCP, CD45RA-FITC, CCR7-PE and CD62L-APC (5% Y/100 μl/sample for each of 4 antibodies) at 4° C. for 1 h, washed twice with PBS+100 FBS and analyzed on flow cytometer to check if these drugs are enriching T stem cells showing surface expression of CD8+CD45RA+CCR7+CD62L+.
# (§3) Day 0: Blood was obtained from unidentified donor. After RBC lysis, PBMC were collected using Ficoll-Hypaque separation. 200 million T cells were isolated from PBMCs using CD3 microbeads. T cells were cultured overnight in XVIVO 15 medium (Lonza) with IL2 (50 IU/ml), 30 ng/ml of CD3 and CD28 antibodies
# (§4) Day 1: Cells were plated in 24-well plates at a density of 0.3 million cells/ml in each well and treated with different drugs.
# (§5) On day 7, culture medium was replaced with fresh medium with fresh drugs.
# (§6) On day 13, culture medium was replaced with fresh medium and fresh drugs. Half of the cells were transferred to 6-well plates.
# as §2, with “14” for “13”, “above” for “above (1-21)”, “(5 ul/100 ul/sample” for “(5% Y/100 μl/sample”, “PBS+1%” for “PBS+100”, “enriching for” for “enriching”, “T” for “T stem”
# [2] = tested on: CD45RA+CCR7+CD62L+ T cells; experiment: Flow cytometry for CD45RA, CCR7 and CD62L on inhibitor-treated T cells (all T cells); settings: for % of CD62L+CCR7+ double positive cells out of CD45RA+ cells in live T cell population: 13 days treatment; for GATE P6 CD45RA(FITC)+, CCR7 (PE)+, CD62L(APC): cells cultured for 14 days
# Description: as §1, §2, §3, §4, §5, §6
# as §2, with “14” for “13”, “above” for “above (1-21)”, “(5 ul/100 ul/sample” for “(5% Y/100 μl/sample”, “PBS+1%” for “PBS+100”, “enriching for” for “enriching”, “T” for “T stem”
# [3] = tested on: Pgp+ (DiOC2(3)-dye effluxing) T cells; experiment: DiOC2(3) dye efflux flow cytometry of inhibitor-treated T cells; settings: for p2: pgp+ from Live cells: treatment for 13 days, IL2 + CD3 and CD28 antibodies
# Description: (§7) The use of P-glycoprotein (Pgp)-mediated efflux of DiOC2(3) to isolate stem like T cells for adoptive cellular therapy has been described in application no. […] In the following examples, DiOC2(3) staining was used to study the effect of different inhibitors on generation of stem like T cells.
# as §1
# (§8) The cell growth medium was changed in 6-well plates and fresh drugs were added at same concentration for one more week.
# (§9) […] (DAY 11): Culture medium was changed and fresh drugs were added in 6-well plates.
# (§10) Subsequently, cells were washed with RPMI medium and dye was effluxed at 37° C. for 90 min. Cells were washed with […], stained with CD62L-APC (5 μl/100 μl/sample) at 4° C. for 1 h, washed twice with PBS+1% FBS and analyzed on flow cytometer to check if these drugs treatment leads to increase in Pgp+/CD62L positive population.
# as §3, §4, §5, §6
# (§11) Day 14: An aliquot of cells with all the treatments listed above (for 13 days) was used to stain the cells with DiOC2(3) (60 ng/ml in RPMI medium) at 4° C. for 40 min, washed with RPMI medium, DiOC2(3) dye was effluxed at 37° C. for 90 min, washed with PBS+1% FBS, stained with CD62L-APC antibody. CD62L is a marker for resting T cells. (5 μl/100 μl/sample) at 4° C. for 1 h, washed twice with PBS+1% FBS and analyzed on flow cytometer to check if these drugs are affecting the dye-effluxing or Pgp+ (i.e., DiOC2(3)-dull) T-cell population.
# [4] = tested on: Pgp+ (DiOC2(3)-dye effluxing cells) and CD62L+ T cells; experiment: DiOC2(3) dye efflux plus CD62L-APC staining, flow cytometry of inhibitor-treated T cells; settings: for p5: double +ve pgp+ and CD62L-APC+ from Live cells: treatment for 13 days, IL2 + CD3 and CD28 antibodies
# Description: as §7, §1, §8, §9, §10, §3, §4, §5, §6, §11
# [5] = CD3-CD28-IL2 culture, inhibitor 10 nM
# [6] = CD3-CD28-IL2 culture, inhibitor 100 nM
# [7] = CD3-CD28-IL2 culture, inhibitor 200 nM
# [8] = CD3-CD28 culture, inhibitor 10 nM
# [9] = CD3-CD28 culture, inhibitor 100 nM
# [10] = CD3-CD28 culture, inhibitor 200 nM
# [11] = CD3-IL2 culture, inhibitor 10 nM
# [12] = CD3-IL2 culture, inhibitor 100 nM
# [13] = CD3-IL2 culture, inhibitor 200 nM
compound,measurement,setting,value
CCN(c1cc(-c2ccc(CN3CCOCC3)cc2)cc(C(=O)NCc2c(C)cc(C)[nH]c2=O)c1C)C1CCOCC1 [Tazemetostat],% of CD62L+CCR7+ double positive cells out of CD45RA+ cells in CD8+ T cell population,[1]; [5],62.73%
same,% of CD62L+CCR7+ double positive cells out of CD45RA+ cells in CD8+ T cell population,[1]; [6],83.53%
same,% of CD62L+CCR7+ double positive cells out of CD45RA+ cells in CD8+ T cell population,[1]; [7],80.78%
same,% of CD62L+CCR7+ double positive cells out of CD45RA+ cells in CD8+ T cell population,[1]; [8],87.00%
same,% of CD62L+CCR7+ double positive cells out of CD45RA+ cells in CD8+ T cell population,[1]; [9],88.26%
same,% of CD62L+CCR7+ double positive cells out of CD45RA+ cells in CD8+ T cell population,[1]; [10],88.37%
same,% of CD62L+CCR7+ double positive cells out of CD45RA+ cells in CD8+ T cell population,[1]; [11],82.23%
same,% of CD62L+CCR7+ double positive cells out of CD45RA+ cells in CD8+ T cell population,[1]; [12],79.86%
same,% of CD62L+CCR7+ double positive cells out of CD45RA+ cells in CD8+ T cell population,[1]; [13],77.35%
same,% of CD62L+CCR7+ double positive cells out of CD45RA+ cells in live T cell population,[2]; [5],50.85%
same,% of CD62L+CCR7+ double positive cells out of CD45RA+ cells in live T cell population,[2]; [6],67.51%
same,% of CD62L+CCR7+ double positive cells out of CD45RA+ cells in live T cell population,[2]; [7],66.36%
same,% of CD62L+CCR7+ double positive cells out of CD45RA+ cells in live T cell population,[2]; [8],77.81%
same,% of CD62L+CCR7+ double positive cells out of CD45RA+ cells in live T cell population,[2]; [9],79.62%
same,% of CD62L+CCR7+ double positive cells out of CD45RA+ cells in live T cell population,[2]; [10],78.45%
same,% of CD62L+CCR7+ double positive cells out of CD45RA+ cells in live T cell population,[2]; [11],67.30%
same,% of CD62L+CCR7+ double positive cells out of CD45RA+ cells in live T cell population,[2]; [12],63.89%
same,% of CD62L+CCR7+ double positive cells out of CD45RA+ cells in live T cell population,[2]; [13],59.08%
same,% of Pgp+ cells out of live cells,"[3]; CD3-CD28-IL2 culture, inhibitor 10 nM, 6 days of treatment",21.86%
same,% of Pgp+ cells out of live cells,"[3]; CD3-CD28-IL2 culture, inhibitor 10 nM, 13 days of treatment",30.38%
same,% of Pgp+ cells out of live cells,"[3]; CD3-CD28-IL2 culture, inhibitor 100 nM, 6 days of treatment",27.17%
same,% of Pgp+ cells out of live cells,"[3]; CD3-CD28-IL2 culture, inhibitor 100 nM, 13 days of treatment",38.45%
same,% of Pgp+ cells out of live cells,"[3]; CD3-CD28-IL2 culture, inhibitor 200 nM, 6 days of treatment",24.85%
same,% of Pgp+ cells out of live cells,"[3]; CD3-CD28-IL2 culture, inhibitor 200 nM, 13 days of treatment",41.22%
same,% of Pgp+ cells out of live cells,"[3]; CD3-CD28 culture, inhibitor 10 nM, 6 days of treatment",39.28%
same,% of Pgp+ cells out of live cells,"[3]; CD3-CD28 culture, inhibitor 10 nM, 13 days of treatment",12.41%
same,% of Pgp+ cells out of live cells,"[3]; CD3-CD28 culture, inhibitor 100 nM, 6 days of treatment",40.50%
same,% of Pgp+ cells out of live cells,"[3]; CD3-CD28 culture, inhibitor 100 nM, 13 days of treatment",5.19%
same,% of Pgp+ cells out of live cells,"[3]; CD3-CD28 culture, inhibitor 200 nM, 6 days of treatment",43.11%
same,% of Pgp+ cells out of live cells,"[3]; CD3-CD28 culture, inhibitor 200 nM, 13 days of treatment",11.82%
same,% of Pgp+ cells out of live cells,"[3]; CD3-IL2 culture, inhibitor 10 nM, 6 days of treatment",24.77%
same,% of Pgp+ cells out of live cells,"[3]; CD3-IL2 culture, inhibitor 10 nM, 13 days of treatment",28.61%
same,% of Pgp+ cells out of live cells,"[3]; CD3-IL2 culture, inhibitor 100 nM, 6 days of treatment",25.31%
same,% of Pgp+ cells out of live cells,"[3]; CD3-IL2 culture, inhibitor 100 nM, 13 days of treatment",16.74%
same,% of Pgp+ cells out of live cells,"[3]; CD3-IL2 culture, inhibitor 200 nM, 6 days of treatment",25.89%
same,% of Pgp+ cells out of live cells,"[3]; CD3-IL2 culture, inhibitor 200 nM, 13 days of treatment",28.06%
same,percentage of Pgp+ cells,"[3]; culture with CD3 antibody, CD28 antibody and IL2, 6 days of treatment, 10 nM",27.17%
same,% of Pgp+ CD62L+cells out of live cells,"[4]; CD3-CD28-IL2 culture, inhibitor 10 nM, 6 days treatment",8.42%
same,% of Pgp+ CD62L+cells out of live cells,"[4]; CD3-CD28-IL2 culture, inhibitor 10 nM, 13 days treatment",8.03%
same,% of Pgp+ CD62L+cells out of live cells,"[4]; CD3-CD28-IL2 culture, inhibitor 100 nM, 6 days treatment",13.16%
same,% of Pgp+ CD62L+cells out of live cells,"[4]; CD3-CD28-IL2 culture, inhibitor 100 nM, 13 days treatment",12.57%
same,% of Pgp+ CD62L+cells out of live cells,"[4]; CD3-CD28-IL2 culture, inhibitor 200 nM, 6 days treatment",11.30%
same,% of Pgp+ CD62L+cells out of live cells,"[4]; CD3-CD28-IL2 culture, inhibitor 200 nM, 13 days treatment",14.25%
same,% of Pgp+ CD62L+cells out of live cells,"[4]; CD3-CD28 culture, inhibitor 10 nM, 6 days treatment",19.36%
same,% of Pgp+ CD62L+cells out of live cells,"[4]; CD3-CD28 culture, inhibitor 10 nM, 13 days treatment",2.95%
same,% of Pgp+ CD62L+cells out of live cells,"[4]; CD3-CD28 culture, inhibitor 100 nM, 6 days treatment",18.38%
same,% of Pgp+ CD62L+cells out of live cells,"[4]; CD3-CD28 culture, inhibitor 100 nM, 13 days treatment",1.18%
same,% of Pgp+ CD62L+cells out of live cells,"[4]; CD3-CD28 culture, inhibitor 200 nM, 6 days treatment",20.94%
same,% of Pgp+ CD62L+cells out of live cells,"[4]; CD3-CD28 culture, inhibitor 200 nM, 13 days treatment",2.66%
same,% of Pgp+ CD62L+cells out of live cells,"[4]; CD3-IL2 culture, inhibitor 10 nM, 6 days treatment",8.76%
same,% of Pgp+ CD62L+cells out of live cells,"[4]; CD3-IL2 culture, inhibitor 10 nM, 13 days treatment",9.87%
same,% of Pgp+ CD62L+cells out of live cells,"[4]; CD3-IL2 culture, inhibitor 100 nM, 6 days treatment",10.11%
same,% of Pgp+ CD62L+cells out of live cells,"[4]; CD3-IL2 culture, inhibitor 100 nM, 13 days treatment",4.31%
same,% of Pgp+ CD62L+cells out of live cells,"[4]; CD3-IL2 culture, inhibitor 200 nM, 6 days treatment",11.97%
same,% of Pgp+ CD62L+cells out of live cells,"[4]; CD3-IL2 culture, inhibitor 200 nM, 13 days treatment",9.08%
same,percentage of Pgp+CD62L+ cells,"[4]; culture with CD3 antibody, CD28 antibody and IL2, 6 days of treatment, 100 nM",13.168%
COc1cc2c(NC3CCN(C(C)C)CC3)nc(N3CCC(F)(F)CC3)nc2cc1OCCCN1CCCC1 [UNC0642],"GATE P4 CD8(PerCP)+, CD45RA(FITC)+, CCR7 (PE)+, CD62L(APC)",[1]; 10 nM,71.62%
same,"GATE P4 CD8(PerCP)+, CD45RA(FITC)+, CCR7 (PE)+, CD62L(APC)",[1]; 100 nM,82.37%
same,"GATE P6 CD45RA(FITC)+, CCR7 (PE)+, CD62L(APC)",[2]; 10 nM,63.95%
same,"GATE P6 CD45RA(FITC)+, CCR7 (PE)+, CD62L(APC)",[2]; 100 nM,75.75%
same,p2: pgp+ from Live cells,[3]; 10 nM,22.03
same,p2: pgp+ from Live cells,[3]; 100 nM,32.51
same,p5: double +ve pgp+ and CD62L-APC+ from Live cells,[4]; 10 nM,4.46
same,p5: double +ve pgp+ and CD62L-APC+ from Live cells,[4]; 100 nM,4.81
